Laboratory results: US5712269A, “M2 receptor ligand for the treatment of neurological disorders” (Pharmaceutical Discovery Corporation, priority 1995, dated 1998)
Entries after “also recorded” stand apart in the source; their conditions may differ.

Experiments:
M2 receptors = target: T1, M2 receptors (Rattus norvegicus, UniProt P10980); assay: inhibition of [^3 H]AF-DX-384 binding to M2 receptors in the rat brain
T1 construct: from tissue; host or cells: rat brain
T1 sequence (P10980 1-466): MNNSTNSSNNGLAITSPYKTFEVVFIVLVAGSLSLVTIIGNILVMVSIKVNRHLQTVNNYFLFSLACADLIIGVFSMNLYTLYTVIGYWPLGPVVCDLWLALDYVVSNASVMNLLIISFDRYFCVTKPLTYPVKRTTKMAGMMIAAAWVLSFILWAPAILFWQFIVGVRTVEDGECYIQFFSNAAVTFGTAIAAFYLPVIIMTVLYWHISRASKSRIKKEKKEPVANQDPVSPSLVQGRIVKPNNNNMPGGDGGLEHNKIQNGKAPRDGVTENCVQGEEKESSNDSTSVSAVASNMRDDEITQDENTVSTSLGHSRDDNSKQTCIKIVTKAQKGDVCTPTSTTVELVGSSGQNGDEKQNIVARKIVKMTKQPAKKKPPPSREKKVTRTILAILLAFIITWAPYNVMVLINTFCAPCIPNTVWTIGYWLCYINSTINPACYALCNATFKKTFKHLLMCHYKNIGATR
From the text: FIG. 5 is a graph of the inhibition of [^3 H]AF-DX-384 binding to M2 receptors in the rat brain by PDC008.004, determined as % specific [^3 H]AFDX 384 binding versus log [PDC008.004] in nM.

mice [1] = assay: Watermaze behavioral studies; assay type: in vivo, mouse (male C57 BL/6); settings: 10 mg/kg intraperitoneally
From the text: The following procedures are standard techniques routinely used by those skilled in the art (Morris, R. G. M., 1981)
Male C57 BL/6 mice, 30 g body weight. Minimum 50 animals. Obtainable from The Jackson Laboratories, Bar Harbor, Rt. 3, Me. 04609.
Circular water tank made of sturdy (10 mm thick, minimum) black (or very dark, opaque) lucite or other plastic. Diameter of the tank: 1 meter; Wall height: 50 cm. The tank must have a valve connected to a large diameter (min 1.5 cm inner) water filling/draining rubber hose (min. length 10 ft).
Two targets, one made of the same plastic as the water tank (the "black target"), and one made of translucent variety. Base made of heavy lucite (1 inch thick) shaped as a square with 10 inch sides. Height between the upper surface of the base and the lower surface of the target platform: 20 cm. Target platform support: 20 cm tall, circular rod (1 inch diam.). Circular target platform, 8 cm across, made of 0.5 cm thick plastic and covered with a non-skid material (surgical tape can be used) painted either black or white (depending on the target).
Regimen "A" consists of concurrent injections of either drug(s) or saline and swimming. Injections administered in a sequence: injection--24h--swim--2h--injection--24h--swim--2h--injection . . . etc., until a stable "time to target" plateau among the controls will be reached. […]

mice [2] = assay: behavioral observation after intraperitoneal injection; assay type: in vivo, mouse
[3] = partition coefficient between 1-octanol and 0.1M phosphate; assay type: physicochemical; settings: 1-octanol / 0.1M phosphate
[4] = test system: muscarinic cholinergic receptor; settings: background statement; cited from earlier work

Ki (M2 receptors) | partition coefficient (log P) [3] | Structure (SMILES) | movement pattern change in watermaze (mice [1]; 10 treated vs 10 control mice) | time required to find a hidden target (target latency) after the fourth trial (mice [1]; daily injections, mice) | motor activity after a single injection (mice [2]; 10 mg/kg, intraperitoneally, 24 hour period prior to behavioral testing) | signs observed in injected animals (mice [2]; 100 mg/kg intraperitoneally) | penetration into the intracerebral space (mice [2]; inferred from very swift central cholinergic mediated events, intraperitoneal) | effect on memory function [4]
422 nM | 0.78±0.18 | CCN(CC)CCN(CC(=O)N1c2ccccc2C(=O)Nc2cccnc21)CC1CCCCC1 [PDC 008.004, 11-[[[2-(diethylamino)ethyl]cyclohexylmethylamino]-acetyl]-5,11-dihydro-6H-pyrido [2,3-b][1,4]-benzodiazepin-6-one] | substantial and significant (P>0.01) movement pattern change; also recorded: rapid shift from thygmotactic (wall-hugging) to center crossing and center crossing-goal oriented behavior | substantial statistically significant (P<0.05) decrease | increased motor activity | presence of dyskinesia, ataxia, and absence of flaccid paralysis | rapid penetration into the intracerebral space | –
– | 0.16 | CCN(CC)CCN(CC(=O)N1c2ccccc2C(=O)Nc2cccnc21)CC1CCCCC1.Cl [Compound 6, 11-[[[2-(Diethylamino)ethyl]cyclohexylmethylamino]-acetyl]-5,11-dihydro-6H-pyrido [2,3-b][1,4]-benzodiazepin-6-one hydrochloride salt] | – | – | – | – | – | –
– | – | CN1[C@@H]2C[C@@H](OC(=O)[C@H](CO)c3ccccc3)C[C@H]1[C@@H]1O[C@@H]12 [scopolamine] | – | – | – | – | – | impair memory function
